From ChEMBL document CHEMBL2412954, “Synthesis and characterization of time-resolved fluorescence probes for evaluation of competitive binding to melanocortin receptors” (Bioorg Med Chem, 2013)

How the values were obtained:
Melanocortin receptor 4 [1] = target: T1, Melanocortin receptor 4 (Homo sapiens, UniProt P32245); experiment: Displacement of Eu-DTPA-PEGOMSH(7) from human MC4R expressed in […] cells after 1 hr by time-resolved fluorescence assay; type: cell-based, HEK293
Melanocortin receptor 4 [2] = target: T1, Melanocortin receptor 4; experiment: Displacement of Eu-DTPA-PEGO-NDP-alpha-MSH-NH2 from human MC4R expressed in […] cells after 1 hr by time-resolved fluorescence assay; type: cell-based, HEK293

T1 sequence (P32245 whole entry): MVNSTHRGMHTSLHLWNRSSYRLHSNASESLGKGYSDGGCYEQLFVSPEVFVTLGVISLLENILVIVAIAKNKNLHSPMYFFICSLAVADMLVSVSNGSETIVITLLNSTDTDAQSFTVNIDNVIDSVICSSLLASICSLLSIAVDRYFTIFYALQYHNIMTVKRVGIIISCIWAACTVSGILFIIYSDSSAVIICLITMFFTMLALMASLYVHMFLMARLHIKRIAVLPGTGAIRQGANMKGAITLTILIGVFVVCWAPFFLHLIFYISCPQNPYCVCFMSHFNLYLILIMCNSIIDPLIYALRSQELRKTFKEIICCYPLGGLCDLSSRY

| Ki (Melanocortin receptor 4 [1]; read-out: Ki) [nM] | Ki (Melanocortin receptor 4 [1]; hek293) | Ki (Melanocortin receptor 4 [2]; hek293) | Ki (Melanocortin receptor 4 [2]; read-out: Ki) [nM] | Structure (SMILES) |
| --- | --- | --- | --- | --- |
| 1.7 |  |  |  | CCCC[C@H](NC(=O)[C@H](CO)NC(=O)CCCCCn1cc(CCCCOC(CCC(C)C(O)CCC(C)C(O)CCC(OCCCCc2cn(CCCCCC(=O)N[C@@H](CO)C(=O)N[C@@H](CCCC)C(=O)N[C@@H](CCC(=O)O)C(=O)N[C@@H](Cc3cnc[nH]3)C(=O)N[C@H](Cc3ccccc3)C(=O)N[C@@H](CCCNC(=N)N)C(=O)N[C@@H](Cc3c[nH]c4ccccc34)C(N)=O)nn2)C(C)CCC(O)C(C)CCC(O)C(C)C)C(C)C)nn1)C(=O)N[C@@H](CCC(=O)O)C(=O)N[C@@H](Cc1cnc[nH]1)C(=O)N[C@H](Cc1ccccc1)C(=O)N[C@@H](CCCNC(=N)N)C(=O)N[C@@H](Cc1c[nH]c2ccccc12)C(N)=O (some centres not stated) |
|  | Not Active | Not Active |  | CC(C)C(O)CCC(C)C(O)CCC(C)C(CCC(O)C(C)CCC(O)C(C)CCC(OCCCCc1cn(CCCCCC(=O)N[C@@H](CO)C(N)=O)nn1)C(C)C)OCCCCc1cn(CCCCCC(=O)N[C@@H](CO)C(N)=O)nn1 (some centres not stated) |
| 2.4 |  |  | 33 | CCCC[C@H](NC(=O)[C@H](CO)NC(=O)CCCCCn1cc(CCCCOC(CCC(O)C(C)CCC(O)C(C)CCC(O)C(C)C)C(C)CCC(O)C(C)CCC(O)C(C)C)nn1)C(=O)N[C@@H](CCC(=O)O)C(=O)N[C@@H](Cc1cnc[nH]1)C(=O)N[C@H](Cc1ccccc1)C(=O)N[C@@H](CCCNC(=N)N)C(=O)N[C@@H](Cc1c[nH]c2ccccc12)C(N)=O (some centres not stated) |
|  | Not Active | Not Active |  | CC(C)C(O)CCC(C)C(O)CCC(C)C(O)CCC(OCCCCc1cn(CCCCCC(=O)N[C@@H](CO)C(N)=O)nn1)C(C)CCC(O)C(C)CCC(O)C(C)C (some centres not stated) |
